From PubChem BioAssay AID1963828 (Molecular Pharmacology Branch, DTP, NCI, 2024)

System: 991263-137-R1-J2-PDC complex spheroid viability
Assay: Anticancer human tumor 991263-137-R1-J2-PDC patient-derived colon adenocarcinoma cell line growth inhibition [POLQ]
Settings: for IC50: curve of first compound; for viability, T/C: stronger effect = lower value
Procedure, shortened: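 Growth inhibition in 3D: complex spheroids (tumor PDC, HUVEC, MSC) treated with POLQ inhibitor combinations; where Cmax unknown, highest tested concentration 10 microM, except SN-38 at 1 microM.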

[1] = second compound 0.0316 µM, first compound 0.0316 µM
[2] = second compound 0.0316 µM, first compound 0.1 µM
[3] = second compound 0.0316 µM, first compound 0.316 µM
[4] = second compound 0.0316 µM, first compound 1 µM
[5] = second compound 0.0316 µM, first compound 3.16 µM
[6] = second compound 0.0316 µM, first compound 10 µM
[7] = second compound 0.1 µM, first compound 0.0316 µM
[8] = second compound 0.1 µM, first compound 0.1 µM
[9] = second compound 0.1 µM, first compound 0.316 µM
[10] = second compound 0.1 µM, first compound 1 µM
[11] = second compound 0.1 µM, first compound 3.16 µM
[12] = second compound 0.1 µM, first compound 10 µM
[13] = second compound 0.316 µM, first compound 0.0316 µM
[14] = second compound 0.316 µM, first compound 0.1 µM
[15] = second compound 0.316 µM, first compound 0.316 µM
[16] = second compound 0.316 µM, first compound 1 µM
[17] = second compound 0.316 µM, first compound 3.16 µM
[18] = second compound 0.316 µM, first compound 10 µM
[19] = second compound 1 µM, first compound 0.0316 µM
[20] = second compound 1 µM, first compound 0.1 µM
[21] = second compound 1 µM, first compound 0.316 µM
[22] = second compound 1 µM, first compound 1 µM
[23] = second compound 1 µM, first compound 3.16 µM
[24] = second compound 1 µM, first compound 10 µM
[25] = second compound 3.16 µM, first compound 0.0316 µM
[26] = second compound 3.16 µM, first compound 0.1 µM
[27] = second compound 3.16 µM, first compound 0.316 µM
[28] = second compound 3.16 µM, first compound 1 µM
[29] = second compound 3.16 µM, first compound 3.16 µM
[30] = second compound 3.16 µM, first compound 10 µM
[31] = second compound 10 µM, first compound 0.0316 µM
[32] = second compound 10 µM, first compound 0.1 µM
[33] = second compound 10 µM, first compound 0.316 µM
[34] = second compound 10 µM, first compound 1 µM
[35] = second compound 10 µM, first compound 3.16 µM
[36] = second compound 10 µM, first compound 10 µM
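Note: spheroids exposed to compounds for 7 days before readout.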
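Throughout, for viability, T/C: 100% = DMSO vehicle control viability.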

`CC1COCCN1c1cc(C2(S(C)(=N)=O)CC2)nc(-c2ccnc3[nH]ccc23)n1` (stereo unspecified) + COC1C(OC(N)=O)C(O)C(Oc2ccc3c(O)c(NC(=O)c4ccc(O)c(CC=C(C)C)c4)c(=O)oc3c2C)OC1(C)C showed an IC50 (second compound 0.0316 µM) greater than 10 µM, an IC50 (second compound 0.1 µM) greater than 10 µM and an IC50 (second compound 0.316 µM) greater than 10 µM. The IC50 (second compound 1 µM) was greater than 10 µM, the IC50 (second compound 3.16 µM) was greater than 10 µM and the IC50 (second compound 10 µM) was greater than 10 µM. The viability, T/C [1] was 99.2%, the viability, T/C [2] was 84.5% and the viability, T/C [3] was 104%. It also gave a viability, T/C [4] of 87%, a viability, T/C [5] of 91.5% and a viability, T/C [6] of 66.1%. For the same molecule, the viability, T/C [7] was 113%, the viability, T/C [8] was 112% and the viability, T/C [9] was 101%. It also gave a viability, T/C [10] of 89.2%, a viability, T/C [11] of 97.6% and a viability, T/C [12] of 55.4%. It also gave a viability, T/C [13] of 96.3%, a viability, T/C [14] of 106% and a viability, T/C [15] of 89.9%. The viability, T/C [16] was 69.6%, the viability, T/C [17] was 104% and the viability, T/C [18] was 83.8%. For the same molecule, the viability, T/C [19] was 106%, the viability, T/C [20] was 103% and the viability, T/C [21] was 91.2%. The viability, T/C [22] was 89.5%, the viability, T/C [23] was 96.5% and the viability, T/C [24] was 79.9%. The viability, T/C [25] was 92.8%, the viability, T/C [26] was 85.9% and the viability, T/C [27] was 98.3%. For the same molecule, the viability, T/C [28] was 106%, the viability, T/C [29] was 103% and the viability, T/C [30] was 84%. It also gave a viability, T/C [31] of 86.8%, a viability, T/C [32] of 106% and a viability, T/C [33] of 105%. For the same molecule, the viability, T/C [34] was 96.6%, the viability, T/C [35] was 107% and the viability, T/C [36] was 70.9%.
Work on `C=CC(=O)N1CCN(c2nc(=O)n(-c3c(C)ccnc3C(C)C)c3nc(-c4c(O)cccc4F)c(F)cc23)C(C)C1` (stereo unspecified) + Cc1cccc(N(C)C(=O)C2C(O)CCN2c2nc(C)cc(C(F)(F)F)c2C#N)c1 yielded an IC50 (second compound 0.0316 µM) greater than 10 µM, an IC50 (second compound 0.1 µM) greater than 10 µM and an IC50 (second compound 0.316 µM) greater than 10 µM. It also gave an IC50 (second compound 1 µM) greater than 10 µM, an IC50 (second compound 3.16 µM) greater than 10 µM and an IC50 (second compound 10 µM) greater than 10 µM. The viability, T/C [1] was 104%, the viability, T/C [2] was 109% and the viability, T/C [3] was 93.5%. It also gave a viability, T/C [4] of 103%, a viability, T/C [5] of 114% and a viability, T/C [6] of 115%. The viability, T/C [7] was 114%, the viability, T/C [8] was 112% and the viability, T/C [9] was 102%. The viability, T/C [10] was 90.5%, the viability, T/C [11] was 116% and the viability, T/C [12] was 107%. For the same molecule, the viability, T/C [13] was 97.6%, the viability, T/C [14] was 107% and the viability, T/C [15] was 102%. For the same molecule, the viability, T/C [16] was 90.3%, the viability, T/C [17] was 120% and the viability, T/C [18] was 104%. It also gave a viability, T/C [19] of 88%, a viability, T/C [20] of 117% and a viability, T/C [21] of 107%. It also gave a viability, T/C [22] of 81.7%, a viability, T/C [23] of 115% and a viability, T/C [24] of 124%. It also gave a viability, T/C [25] of 98.7%, a viability, T/C [26] of 118% and a viability, T/C [27] of 95.7%. It also gave a viability, T/C [28] of 91.7%, a viability, T/C [29] of 123% and a viability, T/C [30] of 107%. The viability, T/C [31] was 101%, the viability, T/C [32] was 107% and the viability, T/C [33] was 108%. It also gave a viability, T/C [34] of 116%, a viability, T/C [35] of 116% and a viability, T/C [36] of 103%.
Work on `CCCS(=O)(=O)Nc1ccc(F)c(C(=O)c2c[nH]c3ncc(-c4ccc(Cl)cc4)cc23)c1F` + Nc1ccc(C#CCN(C(=O)Cc2ncc(C(F)(F)F)cc2C(F)(F)F)c2ccc(F)cc2)nn1 yielded an IC50 (second compound 0.0316 µM) greater than 10 µM, an IC50 (second compound 0.1 µM) greater than 10 µM and an IC50 (second compound 0.316 µM) greater than 10 µM. For the same molecule, the IC50 (second compound 1 µM) was greater than 10 µM, the IC50 (second compound 3.16 µM) was greater than 10 µM and the IC50 (second compound 10 µM) was greater than 10 µM. It also gave a viability, T/C [1] of 114%, a viability, T/C [2] of 98.2% and a viability, T/C [3] of 103%. It also gave a viability, T/C [4] of 107%, a viability, T/C [5] of 117% and a viability, T/C [6] of 102%. It also gave a viability, T/C [7] of 97.6%, a viability, T/C [8] of 101% and a viability, T/C [9] of 97.2%. It also gave a viability, T/C [10] of 110%, a viability, T/C [11] of 103% and a viability, T/C [12] of 103%. The viability, T/C [13] was 105%, the viability, T/C [14] was 114% and the viability, T/C [15] was 108%. It also gave a viability, T/C [16] of 98.7%, a viability, T/C [17] of 128% and a viability, T/C [18] of 95.1%. The viability, T/C [19] was 93.9%, the viability, T/C [20] was 102% and the viability, T/C [21] was 112%. The viability, T/C [22] was 117%, the viability, T/C [23] was 117% and the viability, T/C [24] was 107%. The viability, T/C [25] was 117%, the viability, T/C [26] was 97.3% and the viability, T/C [27] was 111%. For the same molecule, the viability, T/C [28] was 93.2%, the viability, T/C [29] was 111% and the viability, T/C [30] was 115%. The viability, T/C [31] was 90.2%, the viability, T/C [32] was 112% and the viability, T/C [33] was 95.7%. It also gave a viability, T/C [34] of 104%, a viability, T/C [35] of 115% and a viability, T/C [36] of 116%.
